The text below walks through data of paper PMC11279465, “Dual Inhibitors of P-gp and Carbonic Anhydrase XII (hCA XII) against Tumor Multidrug Resistance with Piperazine Scaffold” (Molecules, 2024).

A value given as a limit tells only on which side of the number the result lay.

In data set [1] the target is T1, hCA I (Homo sapiens, UniProt P00915).
T1 construct: made in house
Nature of the data set: CA inhibition, stopped-flow CO2 hydrase assay. The note with it: stopped-flow technique; incubation time 6 h; mean of 3 assays. It is filed as biochemical. In a few lines: (§1)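 Stopped-flow CO2 hydration used saturated CO2 solutions at 25 °C as substrate. Enzyme and inhibitor (10 μM stocks in DMSO-water, diluted down to 0.01 nM) were preincubated for 6 h at room temperature.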

Data set [2] concerns the target T2, hCA II (Homo sapiens, UniProt P00918).
T2 construct: made in house
Description: CA inhibition, stopped-flow CO2 hydrase assay. The format is biochemical. Particulars: stopped-flow technique; incubation time 6 h; mean of 3 assays. In a few lines:
as §1

The target in data set [3] is T3, hCA IX (Homo sapiens, UniProt Q16790).
T3 construct: made in house
Nature of the data set: CA inhibition, stopped-flow CO2 hydrase assay. The format is biochemical. The note with it: stopped-flow technique; incubation time 6 h; mean of 3 assays. Summed up:
as §1

Data set [4] addresses T4, hCA XII (Homo sapiens, UniProt O43570).
T4 construct: made in house
Description: CA inhibition, stopped-flow CO2 hydrase assay. It is filed as biochemical. The note with it: stopped-flow technique; incubation time 6 h; mean of 3 assays. In a few lines:
as §1

Data set [5] deals with K562/DOX cells. Description: Doxorubicin cytotoxicity enhancement assay (MTT). Particulars: 72 h. It is filed as cell-based, human. Summed up: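 K562/DOX cells exposed 72 h to varying doxorubicin concentrations plus 1 or 3 µM test compound. Viability by MTT absorbance, expressed as percentage of untreated control cells.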
Data set [6] addresses T5, MRP1 (Homo sapiens, UniProt P33527).
T5 construct: expressed in transfected cells; host or cells: MDCK (Madin-Darby Canine Kidney)
Description: Calcein-AM transport inhibition in MDCK-MRP1 cells. It is filed as cell-based. The note with it: mean ± SEM. The source says: (§2) The MDR interaction potency of these compounds was studied by detecting the inhibition of the P-gp-, MRP1- or BCRP-mediated efflux of a substrate in cells overexpressing the studied pumps. In detail, we measured the following: (i) the transport inhibition of the profluorescent probe calcein-AM (P-gp and MRP1 substrate) in MDCK-MDR1 and MDCK-MRP1 cells (P-gp- and MRP1-overexpressing cells, respectively); (ii) the transport inhibition of the fluorescent probe Hoechst 33342 (BCRP substrate) in MDCK-BCRP cells (BCRP-overexpressing cells).
Experiments were performed as previously described. MDCK-MDR1 and MDCK-MRP1 cells (30,000 cells per well) were seeded in a 96-well black CulturePlate in 100 µL of medium and allowed to grow overnight in a humidified atmosphere of 5% CO2 at 37 °C. […] All wells were washed 3 times with 100 µL ice-cold PBS and read with Victor3 (PerkinElmer) after adding 100 µL of cold PBS. […] In these experimental conditions, cell Calcein-AM accumulation in the absence and in the presence of each tested compound was evaluated and compared to the basal level of fluorescence derived from untreated cells. The increase in fluorescence from the baseline level was measured in the treated wells. EC50 values were determined by fitting the rate of fluorescence increase versus log[dose].

Data set [7] has as its system A549/DOX cells. Description: Intrinsic cytotoxicity (MTT). The format is cell-based, human. Particulars: compound alone, 1 µM, 48 h; A549/DOX vs A549. The method, then: (§3) All compounds were preliminarily studied to evaluate their intrinsic cytotoxicity at different concentrations (from 10 nM to 50 µM) in the parental HT29 and A549 and the resistant HT29/DOX and A549/DOX cells using the MTT assay.
(§4) The intrinsic toxicity of the studied compounds was determined by an MTT assay. K562 and K562/DOX were exposed for 72 h with compounds at 1 and 3 µM concentrations while HT29, A549, HT29/DOX and A549/DOX cells were incubated for 48 h with compounds used at different concentrations (from 10 nM to 50 µM). The percentage of growth compared to the untreated control was transformed into histograms with the GraphPad Prism 5 program. […]

Data set [8] deals with HT29/DOX cells. Description: Intrinsic cytotoxicity (MTT). It is filed as cell-based, human. Particulars: compound alone, 1 µM, 48 h; HT29/DOX vs HT29. Here is the method: as §3, §4
The subject of data set [9] is A549/DOX cells. Nature of the data set: ROS measurement (DCFDA-AM). It is filed as cell-based, human. Particulars: 1 µM. Here is the method: (§5) Selected compounds have been tested for their cytotoxic activity at 24 h on HT29/DOX and A549/DOX cells and on the parental HT29 and A549 cells by MTT assay. To evaluate the mechanisms involved in CS, reactive oxygen species (ROS) were measured using the fluorescent probe 5-(and-6)-chloromethyl-2′,7′-dichlorodihydro-fluorescein diacetate-acetoxymethyl ester (DCFDA-AM), as previously reported. The results were expressed as nmol/mg cellular proteins. The amount of TBARS, as an index of lipoperoxidation, was measured with the Lipid Peroxidation (4-HNE) Assay Kit (Abcam, Cambridge, UK) that evaluates the 4-hydroxy-nonenale, one of the TBARS Results were expressed as nmoles/mg mitochondrial protein.

The subject of data set [10] is HT29/DOX cells. Nature of the data set: ROS measurement (DCFDA-AM). Particulars: 1 µM. The format is cell-based, human. The method, then:
as §5

In data set [11] the test system is A549/DOX cells. Nature of the data set: TBARS (lipid peroxidation, 4-HNE kit). The format is cell-based, human. The note with it: 1 µM. The method, then:
as §5

Data set [12] deals with HT29/DOX cells. Description: TBARS (lipid peroxidation, 4-HNE kit). The note with it: 1 µM. It is filed as cell-based, human. The method, then:
as §5

In data set [13] the test system is A549/DOX cells. Nature of the data set: Membrane fluidity. It is filed as cell-based, human. The note with it: 1 µM. Here is the method: (§6) Membrane fluidity was measured fluorometrically using the Membrane Fluidity Kit, Abcam, according to the manufacturer’s instructions.
In data set [14] the test system is HT29/DOX cells. Description: Membrane fluidity. The format is cell-based, human. Particulars: 1 µM. The method, then: as §6
In data set [15] the target is T6, P-gp (Homo sapiens, UniProt P08183). Nature of the data set: P-gp ATPase activity (HT29/DOX cells). It is filed as biochemical. Also noted: endogenous in cells; host or cells: HT29/DOX (A27) and A549/DOX (A28). The note with it: 1 µM, compared with HT29. The method, then: (§7) Plasma-membrane vesicles enriched with P-gp were prepared by sequential centrifugation as detailed previously. The ATPase activity of immunopurified P-gp was evaluated spectrophotometrically by measuring the absorbance of the phosphate hydrolyzed from ATP at 620 nm, using a Synergy HT Multi-Detection Microplate Reader (Bio-Tek Instruments). The absorbance was converted into μmol hydrolyzed phosphate/min/mg proteins, according to the titration curve previously prepared.
T6 sequence (P08183 whole entry): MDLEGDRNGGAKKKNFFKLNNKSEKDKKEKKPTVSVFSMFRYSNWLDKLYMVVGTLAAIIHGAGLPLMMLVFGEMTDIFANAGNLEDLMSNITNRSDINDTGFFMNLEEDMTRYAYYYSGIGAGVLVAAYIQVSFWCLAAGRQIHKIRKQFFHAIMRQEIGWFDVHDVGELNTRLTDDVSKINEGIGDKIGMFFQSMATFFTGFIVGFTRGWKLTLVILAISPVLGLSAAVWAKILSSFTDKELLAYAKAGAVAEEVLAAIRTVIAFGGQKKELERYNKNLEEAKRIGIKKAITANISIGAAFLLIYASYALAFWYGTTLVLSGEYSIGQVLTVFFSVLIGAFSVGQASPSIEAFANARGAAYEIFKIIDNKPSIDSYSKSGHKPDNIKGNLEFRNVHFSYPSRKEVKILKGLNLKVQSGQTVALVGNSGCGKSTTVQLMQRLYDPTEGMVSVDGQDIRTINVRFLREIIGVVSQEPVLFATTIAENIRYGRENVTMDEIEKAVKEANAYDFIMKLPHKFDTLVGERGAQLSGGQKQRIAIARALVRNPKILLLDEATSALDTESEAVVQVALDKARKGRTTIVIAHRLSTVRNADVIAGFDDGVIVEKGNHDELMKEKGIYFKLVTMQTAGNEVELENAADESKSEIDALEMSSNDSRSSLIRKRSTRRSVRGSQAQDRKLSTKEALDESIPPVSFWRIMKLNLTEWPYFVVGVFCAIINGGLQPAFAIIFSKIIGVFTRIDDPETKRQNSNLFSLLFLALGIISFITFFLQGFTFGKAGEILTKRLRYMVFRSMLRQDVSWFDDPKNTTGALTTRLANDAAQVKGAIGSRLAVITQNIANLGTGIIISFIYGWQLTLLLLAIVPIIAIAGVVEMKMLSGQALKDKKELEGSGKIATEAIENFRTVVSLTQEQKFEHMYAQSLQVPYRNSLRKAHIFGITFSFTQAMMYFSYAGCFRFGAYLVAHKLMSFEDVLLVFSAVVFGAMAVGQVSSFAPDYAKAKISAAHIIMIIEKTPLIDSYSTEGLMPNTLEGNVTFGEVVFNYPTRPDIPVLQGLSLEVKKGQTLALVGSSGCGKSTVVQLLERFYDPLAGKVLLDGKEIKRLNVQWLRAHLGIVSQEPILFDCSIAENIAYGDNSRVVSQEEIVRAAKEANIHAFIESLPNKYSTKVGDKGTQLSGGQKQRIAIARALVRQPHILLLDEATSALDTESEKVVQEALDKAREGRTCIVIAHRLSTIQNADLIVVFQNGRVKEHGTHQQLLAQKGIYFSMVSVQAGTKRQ

Data set [16] deals with T6, P-gp. Nature of the data set: P-gp ATPase activity (A549/DOX cells). The note with it: 1 µM, compared with A549. The format is biochemical. Also noted: endogenous in cells; host or cells: HT29/DOX (A27) and A549/DOX (A28). Here is the method:
as §7

Data set [17] has as its target T6, P-gp. Nature of the data set: Calcein-AM transport inhibition in MDCK-MDR1 cells. It is filed as cell-based. Also noted: expressed in transfected cells; host or cells: MDCK (Madin-Darby Canine Kidney). The note with it: mean ± SEM.
Excerpt: as §2
Experiments were performed as previously described. MDCK-MDR1 and MDCK-MRP1 cells (30,000 cells per well) were seeded in a 96-well black CulturePlate in 100 µL of medium and allowed to grow overnight in a humidified atmosphere of 5% CO2 at 37 °C. Tested compounds (100 µL) in a final concentration ranging between 0.01 nM and 100 µM, solubilized in culture medium, were added to the monolayers. After 30 min in a humidified atmosphere of 5% CO2 at 37 °C, 100 µL of Calcein-AM in phosphate-buffered saline (PBS) was added to obtain a final concentration of 2.5 µM and the plate was incubated for 30 min. All wells were washed 3 times with 100 µL ice-cold PBS and read with Victor3 (PerkinElmer) after adding 100 µL of cold PBS. Excitation and emission wavelengths of 485 nm and 535 nm, respectively, were used. In these experimental conditions, cell Calcein-AM accumulation in the absence and in the presence of each tested compound was evaluated and compared to the basal level of fluorescence derived from untreated cells. The increase in fluorescence from the baseline level was measured in the treated wells. EC50 values were determined by fitting the rate of fluorescence increase versus log[dose].

T5 sequence (P33527 whole entry): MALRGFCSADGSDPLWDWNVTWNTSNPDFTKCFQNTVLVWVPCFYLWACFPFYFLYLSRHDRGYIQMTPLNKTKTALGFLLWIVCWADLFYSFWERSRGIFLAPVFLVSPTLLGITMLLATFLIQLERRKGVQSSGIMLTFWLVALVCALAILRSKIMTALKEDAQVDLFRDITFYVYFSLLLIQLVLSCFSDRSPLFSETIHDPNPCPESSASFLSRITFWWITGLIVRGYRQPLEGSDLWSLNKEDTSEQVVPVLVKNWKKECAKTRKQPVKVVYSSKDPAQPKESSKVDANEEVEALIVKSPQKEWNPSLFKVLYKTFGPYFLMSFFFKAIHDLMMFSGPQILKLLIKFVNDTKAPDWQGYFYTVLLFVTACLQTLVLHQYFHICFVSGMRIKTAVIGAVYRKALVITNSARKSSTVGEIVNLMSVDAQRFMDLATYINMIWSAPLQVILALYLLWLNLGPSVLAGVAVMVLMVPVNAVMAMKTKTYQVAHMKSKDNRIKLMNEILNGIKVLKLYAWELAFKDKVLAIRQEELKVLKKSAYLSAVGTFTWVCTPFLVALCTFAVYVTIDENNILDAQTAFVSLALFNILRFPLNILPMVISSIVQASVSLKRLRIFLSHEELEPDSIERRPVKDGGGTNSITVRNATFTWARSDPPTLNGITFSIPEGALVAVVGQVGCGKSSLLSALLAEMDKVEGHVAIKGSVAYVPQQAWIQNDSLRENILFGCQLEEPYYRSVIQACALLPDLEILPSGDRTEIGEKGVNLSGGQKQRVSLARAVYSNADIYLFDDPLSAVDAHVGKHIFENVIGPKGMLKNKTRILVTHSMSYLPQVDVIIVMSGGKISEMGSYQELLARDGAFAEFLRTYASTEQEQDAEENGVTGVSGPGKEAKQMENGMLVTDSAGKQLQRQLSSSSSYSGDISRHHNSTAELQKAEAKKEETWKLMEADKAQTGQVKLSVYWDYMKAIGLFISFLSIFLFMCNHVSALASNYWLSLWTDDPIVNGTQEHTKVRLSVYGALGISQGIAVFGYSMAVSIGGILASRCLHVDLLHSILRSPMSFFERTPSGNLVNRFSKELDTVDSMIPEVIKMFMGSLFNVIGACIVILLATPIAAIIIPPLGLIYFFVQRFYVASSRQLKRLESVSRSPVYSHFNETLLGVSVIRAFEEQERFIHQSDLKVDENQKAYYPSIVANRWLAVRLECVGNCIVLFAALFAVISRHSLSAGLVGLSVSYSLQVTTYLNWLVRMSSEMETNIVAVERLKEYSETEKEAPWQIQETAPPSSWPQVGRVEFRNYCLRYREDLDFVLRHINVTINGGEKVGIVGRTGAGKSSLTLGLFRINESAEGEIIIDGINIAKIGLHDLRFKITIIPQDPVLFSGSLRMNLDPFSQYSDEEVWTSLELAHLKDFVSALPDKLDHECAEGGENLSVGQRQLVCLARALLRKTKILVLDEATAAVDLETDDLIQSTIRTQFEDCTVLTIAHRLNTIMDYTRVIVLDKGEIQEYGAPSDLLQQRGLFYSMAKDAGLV
T1 sequence (P00915 whole entry): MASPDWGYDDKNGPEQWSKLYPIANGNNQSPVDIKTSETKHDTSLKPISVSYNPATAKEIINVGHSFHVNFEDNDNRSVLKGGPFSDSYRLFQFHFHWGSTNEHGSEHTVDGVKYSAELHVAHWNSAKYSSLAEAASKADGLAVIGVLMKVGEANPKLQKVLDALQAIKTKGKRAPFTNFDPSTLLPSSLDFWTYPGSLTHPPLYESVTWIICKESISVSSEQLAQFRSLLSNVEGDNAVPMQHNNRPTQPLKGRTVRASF
T4 sequence (O43570 25-354): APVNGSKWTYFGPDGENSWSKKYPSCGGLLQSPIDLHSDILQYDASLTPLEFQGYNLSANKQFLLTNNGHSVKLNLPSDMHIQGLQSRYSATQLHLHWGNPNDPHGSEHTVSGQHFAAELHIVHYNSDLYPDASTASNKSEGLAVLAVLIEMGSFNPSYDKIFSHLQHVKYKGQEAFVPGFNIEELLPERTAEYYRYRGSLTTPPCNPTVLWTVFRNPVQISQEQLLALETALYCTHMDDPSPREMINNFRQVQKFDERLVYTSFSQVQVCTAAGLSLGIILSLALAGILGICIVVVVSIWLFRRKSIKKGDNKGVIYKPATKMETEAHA

`COc1cc(CN2CCN(CCOc3ccc4ccc(=O)oc4c3)CC2)cc(OC)c1OC` [Compound 13, 7-(2-(4-(3,4,5-Trimethoxybenzyl)piperazin-1-yl)ethoxy)-2H-chromen-2-one]: the Ki in [1] was above 10 µM; in [2], above 10 µM; in data set [3], 0.0237 µM; in data set [4], 0.0062 µM. Further, the “RF (Reversal Fold: IC50 of doxorubicin alone / in presence of modulator)” value in data set [5] (compound at 1 µM) was found to be 1.0; in data set [5] (compound at 3 µM), 1.9. Further, the EC50 in data set [6] was 52 ± 10 µM; in data set [17], 14.5 ± 0.25 µM. Moreover, the “more cytotoxic in resistant cells than in parental sensitive cells” value in [7] and in data set [8] was 15%-20% in each case. In addition, the entries for the “increase of ROS levels compared to the control” value in data set [9] and in data set [10] were 7–8 times and 3–4 times, respectively. For the same compound, the “increase of TBARS levels compared to the control” value is 4 times in [11] and 2.6 times in data set [12]. For the same compound, the membrane fluidity entry in data set [13] and in data set [14] was “increased membrane fluidity” each time. The P-gp catalytic activity entry in data set [15] was “lowered the catalytic efficacy of P-gp in resistant cells to levels comparable to drug-sensitive HT29 and A549 cells”; in data set [16] it was “lowered the catalytic efficacy of P-gp in resistant cells to levels comparable to drug-sensitive HT29 and A549 cells”.

For orientation: Ki means the dissociation constant of the complex between target and ligand, obtained from inhibition or displacement. Low readings indicate higher affinity, high ones lower affinity. By EC50 is commonly meant the concentration that produces a half-maximal response.
